Reference: article PMC6892276 (European Journal of Pharmaceutical Sciences, 2019)

How the values were obtained:
[1] = Metabolite profiling in human hepatocytes and HLM; assay type: in vitro ADME; details: for metabolite abundance, % of T0 parent (LC-MS response): HLM only
Procedure: (§1) Suspended hepatocyte incubations for the purposes of metabolite identification and CLint determination were conducted as described by [Wood et al. (2018)] in round-bottomed 350 μl 96-well polypropylene plates on a PHMP thermoshaker (Grant Instruments (Cambridge) Ltd. (Shepreth, UK)) at 37 °C and 900 rpm. […] Individual wells were quenched with 120 μl of methanol containing internal standard over a time course (Table 1) and an aliquot removed for analysis.
(§2) Prior to initiation of the reaction by the addition of NADPH (final concentration 1 mM), an aliquot was removed from each incubation and quenched in ice cold methanol containing internal standard (referred to as T0). NADPH was subsequently added to this solution for matrix matching. The remaining reaction (with addition of NADPH) was allowed to proceed for 60 min. At 0.5, 5, 15, 30 and 60 min aliquots were sampled and quenched as above. Incubations were conducted in singlicate; control incubations (substituting PBS for NADPH) were conducted simultaneously.
(§3) For the purpose of metabolite identification, samples were analysed using a Dionex Ultimate 3000 UHPLC system coupled to a ThermoScientific Q Exactive Plus orbitrap mass spectrometer (Thermo Fisher Scientific Inc., Waltham, USA). Separation of analytes was achieved using an Acquity UPLC HSS T3 column (1.8 μm, 100 × 2.1 mm) (Waters, Elstree, UK) at a temperature of 50 °C and a binary mobile phase gradient at a flow rate of 0.4 ml/min. Initial conditions comprised 10% solvent A (0.1% formic acid in water), 90% solvent B (methanol); this was ramped to 95% A at 12 min, immediately returned to initial conditions and held for the remaining 3 min of the method. The UV absorbance of samples at 230 nm and 260 nm was monitored using a Dionex Ultimate 3000 diode array detector. Sample analysis was by electrospray atmospheric pressure ionization combined with full scan acquisition in positive ion mode over a mass range 80–1200 m/z. The capillary voltage was 3.5 kV; desolvation gas and capillary temperatures were 450 °C and 275 °C respectively; sheath, aux and sweep gas flow rates were 55, 15 and 3 respectively. Full MS/dd-MS^2 (full MS scan followed by data dependent MS/MS) and Full MS/AIF (full MS scan followed by all ion fragmentation) workflows were used in combination.
(§4) Identification of metabolites and elucidation of their proposed structures was undertaken with the aid of the software Compound Discoverer (v2.0.0.303, Thermo Fisher Scientific Inc., Waltham, USA). RAW data files containing accurate mass data and fragmentation spectra generated in the acquisition software Chromeleon (v7.2 SR3 (7553), Thermo Fisher Scientific Inc., Waltham, USA) were input into Compound Discoverer and processed using the targeted workflow described in Fig. 1 of the Appendix. The final time point of a parallel incubation of a different compound was used as a sample blank and any chromatographic peaks identified with the same m/z and retention time as in this sample were marked as background compounds and therefore not considered as potential metabolites. The Compound Discoverer application combines accurate mass data, isotope pattern matching and predicted biotransformations based on the parent compound's structure to generate a series of expected and unexpected compounds or metabolites. These were manually filtered using a typical criteria of peak area greater than or equal to 5000 counts per sec; compound identified in samples of at least three time points and peak area ratio of compound in Tx relative to T0 greater than or equal to 2, where Tx represents any given time point. […] The fragmentation spectra of these analytes were compared to those of the parent to facilitate structural interpretation of biotransformations. […]

[2] = Metabolite profiling in rat hepatocytes and RLM; assay type: in vitro ADME
Procedure: as §1, §2
(§5) For the purpose of metabolite identification, samples were analysed using a Dionex Ultimate 3000 UHPLC system coupled to a ThermoScientific Q Exactive Plus orbitrap mass spectrometer (Thermo Fisher Scientific Inc., Waltham, USA). […] The UV absorbance of samples at 230 nm and 260 nm was monitored using a Dionex Ultimate 3000 diode array detector. […]

[3] = Metabolite profiling in mouse hepatocytes and MLM; assay type: in vitro ADME; details: for % T0 parent response, minor metabolites: mouse, matrix not stated; for % total metabolite response: MLM 1 mg/ml, 1 μM; for maximal metabolite abundance, % of T0 parent (LC-MS/MS response): mouse hepatocytes and MLM
Procedure: as §1, §2, §3, §4

[4] = Metabolite profiling in dog hepatocytes and DLM; assay type: in vitro ADME; details: dog hepatocytes and microsomes of both sexes
Procedure: as §1, §2, §5

[5] = biological target: T1, FLT3 (Homo sapiens, UniProt P36888); assay: KINOMEscan Kd determination against FLT3; assay type: binding; details: 11-point 3-fold dilution series, top concentration 5 μM
T1 sequence (P36888 27-993): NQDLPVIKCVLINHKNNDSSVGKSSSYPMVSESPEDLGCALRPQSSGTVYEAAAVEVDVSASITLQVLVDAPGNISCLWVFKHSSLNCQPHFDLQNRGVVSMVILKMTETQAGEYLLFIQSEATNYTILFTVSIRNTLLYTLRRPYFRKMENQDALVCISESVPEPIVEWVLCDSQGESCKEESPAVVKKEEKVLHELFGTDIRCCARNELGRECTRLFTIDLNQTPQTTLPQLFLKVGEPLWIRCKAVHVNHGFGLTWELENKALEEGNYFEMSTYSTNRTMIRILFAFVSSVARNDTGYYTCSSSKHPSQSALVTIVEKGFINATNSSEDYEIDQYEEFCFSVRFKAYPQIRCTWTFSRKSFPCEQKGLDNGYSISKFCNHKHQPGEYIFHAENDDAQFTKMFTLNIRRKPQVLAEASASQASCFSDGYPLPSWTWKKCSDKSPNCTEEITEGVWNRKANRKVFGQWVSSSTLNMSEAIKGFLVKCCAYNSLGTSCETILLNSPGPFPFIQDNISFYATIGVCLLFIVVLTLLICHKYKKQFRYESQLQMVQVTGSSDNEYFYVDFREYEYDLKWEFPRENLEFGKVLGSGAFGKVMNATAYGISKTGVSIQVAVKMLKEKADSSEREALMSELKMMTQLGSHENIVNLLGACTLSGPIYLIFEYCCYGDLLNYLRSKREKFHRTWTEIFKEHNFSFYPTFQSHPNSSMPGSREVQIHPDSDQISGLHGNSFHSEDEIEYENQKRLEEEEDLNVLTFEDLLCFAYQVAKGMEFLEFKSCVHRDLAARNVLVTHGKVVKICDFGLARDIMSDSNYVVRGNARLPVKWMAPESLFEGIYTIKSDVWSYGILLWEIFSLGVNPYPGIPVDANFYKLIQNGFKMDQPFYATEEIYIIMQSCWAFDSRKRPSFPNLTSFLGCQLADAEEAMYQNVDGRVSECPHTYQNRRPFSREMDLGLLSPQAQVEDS
Procedure: (§6) Kds were determined using an 11-point 3-fold compound dilution series (top concentration 5 μM) with three DMSO control points.

[6] = biological target: T2, FLT3-ITD (Homo sapiens, UniProt P36888, ITD); assay: KINOMEscan Kd determination against FLT3-ITD; assay type: binding; details: 11-point 3-fold dilution series, top concentration 5 μM
T2 sequence (P36888 564-993): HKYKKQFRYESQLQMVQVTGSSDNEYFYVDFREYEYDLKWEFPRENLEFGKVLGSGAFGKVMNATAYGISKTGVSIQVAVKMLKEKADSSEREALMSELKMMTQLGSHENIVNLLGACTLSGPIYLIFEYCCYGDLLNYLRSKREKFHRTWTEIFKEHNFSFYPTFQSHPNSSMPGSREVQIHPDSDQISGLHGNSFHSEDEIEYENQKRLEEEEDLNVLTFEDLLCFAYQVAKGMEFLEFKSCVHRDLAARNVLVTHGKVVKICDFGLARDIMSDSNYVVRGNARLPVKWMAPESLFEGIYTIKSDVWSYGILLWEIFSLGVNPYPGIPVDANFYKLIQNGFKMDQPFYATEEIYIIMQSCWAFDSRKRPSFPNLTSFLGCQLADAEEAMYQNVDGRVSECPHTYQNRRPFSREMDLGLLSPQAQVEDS
Procedure: as §6

[7] = biological target: T3, Aurora-A (Homo sapiens, UniProt O14965); assay: KINOMEscan Kd determination against Aurora-A; assay type: binding; details: 11-point 3-fold dilution series, top concentration 5 μM
T3 sequence (O14965 1-403): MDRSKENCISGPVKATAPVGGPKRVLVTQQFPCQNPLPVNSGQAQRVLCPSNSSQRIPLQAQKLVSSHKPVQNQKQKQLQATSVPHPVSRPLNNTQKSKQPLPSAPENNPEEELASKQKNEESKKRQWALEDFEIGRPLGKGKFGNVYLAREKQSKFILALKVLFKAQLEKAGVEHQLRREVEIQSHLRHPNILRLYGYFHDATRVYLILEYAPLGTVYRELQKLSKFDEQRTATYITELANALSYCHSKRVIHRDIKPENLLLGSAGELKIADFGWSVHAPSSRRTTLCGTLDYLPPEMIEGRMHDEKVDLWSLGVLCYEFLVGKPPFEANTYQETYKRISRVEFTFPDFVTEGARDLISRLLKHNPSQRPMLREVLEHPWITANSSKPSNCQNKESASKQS
Procedure: as §6

[8] = biological target: Aurora-B (Homo sapiens, UniProt Q96GD4); assay: KINOMEscan Kd determination against Aurora-B; assay type: binding; details: 11-point 3-fold dilution series, top concentration 5 μM
Sequence of Aurora-B (Q96GD4 whole entry): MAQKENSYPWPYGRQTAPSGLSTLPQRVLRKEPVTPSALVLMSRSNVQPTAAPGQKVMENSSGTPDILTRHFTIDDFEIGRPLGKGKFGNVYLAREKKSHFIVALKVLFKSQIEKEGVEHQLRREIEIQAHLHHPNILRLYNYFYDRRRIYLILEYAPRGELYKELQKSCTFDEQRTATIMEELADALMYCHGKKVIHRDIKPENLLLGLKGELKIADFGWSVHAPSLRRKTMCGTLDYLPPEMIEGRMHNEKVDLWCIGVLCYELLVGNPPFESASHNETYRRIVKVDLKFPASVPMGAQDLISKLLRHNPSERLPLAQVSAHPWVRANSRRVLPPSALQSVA
Procedure: as §6

Compound: Cc1nn(C)cc1-c1nc2c(NCCNCc3ccc(Cl)cc3)c(Cl)cnc2[nH]1 [Compound M4]
- metabolite abundance, % of parent LC-MS response at T0 ([1]; human hepatocytes and HLM): < 2%
- metabolite abundance, % of parent ([2]; RLM, at most): < 2%
- maximal metabolite abundance, % of T0 parent (LC-MS/MS response) ([2]; rat hepatocytes): 8–10%

Compound: Cc1n[nH]cc1-c1nc2c(N3CCNCC3)c(Cl)cnc2[nH]1 [Compound M6]
- metabolite abundance, % of T0 parent (LC-MS response) [1]: < 2%
- % T0 parent response, minor metabolites [3]: < 2%

Compound: Cc1nn(C)cc1-c1nc2c(N3CC[N+]([O-])(Cc4ccc(Cl)cc4)CC3)c(Cl)cnc2[nH]1 [Compound M2]
- % total metabolite response ([1]; HLM 1 mg/ml, 1 μM, 60 min incubation): 3.5%
- % total metabolite response ([3]; within the first 30 min of incubation): > 25%
- maximal metabolite abundance, % of T0 parent (LC-MS/MS response) [3]: > 10%

Compound: Cc1nn(C)cc1-c1nc2c(NCCN)c(Cl)cnc2[nH]1 [Compound M7]
- metabolite abundance, % of T0 parent (LC-MS response) [1]: < 2%
- maximal metabolite abundance, % of T0 parent (LC-MS/MS response) [3]: > 10%

Compound: Cc1n[nH]cc1-c1nc2c(N3CCN(Cc4ccc(Cl)cc4)CC3)c(Cl)cnc2[nH]1 [Compound M3]
- metabolite abundance, % of parent LC-MS response at T0 ([1]; human hepatocytes and HLM): < 2%
- maximal metabolite abundance, % of T0 parent (LC-MS/MS response) [4]: > 10%
- % T0 parent response, minor metabolites [3]: < 2%

Compound: Cc1nn(C)cc1-c1nc2c(N3CCNCC3)c(Cl)cnc2[nH]1 [Compound M1]
- Kd [5]: 7.9 nM
- Kd [6]: 82 nM
- Kd [7]: 33 nM
- Kd [8]: 130 nM
- metabolite abundance, % of parent LC-MS response at T0 ([1]; HLM, final sampled time point): 10.6%
- metabolite abundance, % of parent LC-MS response at T0 ([1]; human hepatocytes and HLM): approximately 10%
- metabolite abundance, % of parent LC-MS response at T0 ([1]; human hepatocytes, final sampled time point): 9.4%
- % total metabolite response ([3]; peak of initial increase): up to 7%
